Counter-ions that a name gives are not always drawn. Like-named read-outs stand apart in the source and are kept apart here.
Tests used:
[1] = tested on: SARS-CoV-2 (USA-WA1/2020) in Calu-3 cells; assay: microbe, parasite or virus in culture; type: cell-based; conditions: for EC50 / EC50 (μM) dsRNA: above 30 μM reported as >30; for EC50: read-out: EC50 (μM) dsRNA; for Effect on dsRNA / virus in dose response: Figure 5C-F
[2] = tested on: Calu-3 cells infected with SARS-CoV-2; type: cell-based, human; parameters: key to Grouping with red cluster (mock control) in UMAP: *: Clusters with mock control in high-dose treatment; conditions: for Grouping with red cluster (mock control) in UMAP: high-dose treatment; for Shift in UMAP space with increasing concentration: Figure 5C-F
[3] = tested on: SARS-CoV-2 (USA-WA1/2020) in Calu-3 cells; type: cell-based; conditions: for dsRNA signal, AU High: high dose (10 µM); for dsRNA signal, AU High / dsRNA signal, AU Low: Calu-3, 48 h; for dsRNA signal, AU Low: low dose (100 nM)
Calu-3 cells [4] = assay: cells; conditions: Homo sapiens, Calu-3, read-out: EC50 (μM) Cell count
Calu-3 cells [5] = conditions: for Effect on host cell viability and morphology: Figure 5C-F; for EC50: read-out: EC50 (μM) Cell count, Calu-3, DAPI-stained nuclei, above 30 μM reported as >30
[6] = tested on: SARS-Cov-2 WA strain in A549 lung cells; type: cell-based
[7] = Severe acute respiratory syndrome coronavirus 2, Calu-3, 48 h
[8] = fold: cell count EC50 over dsRNA EC50
[9] = listed as Flavopiridol hydrochloride

Row | Structure (SMILES) | EC50 [1, 7] | Selectivity index [1, 8] | Grouping with red cluster (mock control) in UMAP [2] | dsRNA signal, AU High [3] | dsRNA signal, AU Low [3] | EC50 (Calu-3 cells [4]) | also measured
1 | COc1cc([C@@H]2c3cc4c(cc3[C@H](O)[C@H]3COC(=O)[C@@H]23)OCO4)cc(OC)c1OC [AXL1717] | 0.00332 µM | 246.615 | AXL1717* | 13380.1 AU | 31807.4 AU | 0.82 µM | 
2 | CCc1cc2c(cc1N1CCC(N3CCOCC3)CC1)C(C)(C)c1[nH]c3cc(C#N)ccc3c1C2=O [CH5424802] | > 30 µM |  |  |  |  | > 30 µM | Effect on dsRNA / virus in dose response [1]: reduced dsRNA very well; Shift in UMAP space with increasing concentration [2]: adjacent yellow cluster; Effect on host cell viability and morphology (Calu-3 cells [5]): blebbing and general toxicity
3 | O=C(O[C@@H]1Cc2c(O)cc(O)cc2O[C@@H]1c1cc(O)c(O)c(O)c1)c1cc(O)c(O)c(O)c1 [Epigallocatechin gallate (EGCG), Epigallocatechin gallate] |  |  | Epigallocatechin gallate (EGCG)* | 14230.9 AU | 24448.0 AU |  | EC50 (μM) dsRNA [1]: None; EC50 (Calu-3 cells [5]): > 30 µM
4 | CN1CC[C@H](c2c(O)cc(O)c3c(=O)cc(-c4ccccc4Cl)oc23)[C@H](O)C1 [Flavopiridol HCl] | 11.4 µM | 0.032 | Flavopiridol HCl* |  |  | 0.364 µM | dsRNA signal, AU High [3, 9]: 187.1 AU; dsRNA signal, AU Low [3, 9]: 16139.6 AU
5 | CC1(C)OCCn2c1nc1c(N3CCOCC3)nc(-c3cnc(N)nc3)nc12 [GDC-0084] | 1.5 µM | 0.873 | GDC-0084* |  |  | 1.31 µM | 
6 | Cc1c(Cn2c(C)nc3c(C(=O)O)cc(N4CCOCC4)cc32)cccc1C(F)(F)F [GSK2636771] | 0.319 µM | >94 | GSK2636771* | 841.3 AU | 28354.9 AU | > 30 µM | Effect on dsRNA / virus in dose response [1]: reduction of dsRNA; Shift in UMAP space with increasing concentration [2]: shift closer to cluster 1 controls; Reduction of infection in representative images ([3]; Figure 4A): reduced infection greatly; Effect on host cell viability and morphology (Calu-3 cells [5]): minimal effect on host cell viability and morphology
7 | CC(C)n1nc(-c2ccc3oc(N)nc3c2)c2c(N)ncnc21 [INK 128] | 0.213 µM |  | INK 128* | 0.0 AU | 31875.7 AU | 2.47 µM | Selectivity index [1]: 11.590; Shift in UMAP space with increasing concentration [2]: moving into cluster 1; Synergy (ZIP synergy model) [6]: Antagonism; Effect on host cell viability and morphology (Calu-3 cells [5]): little effect on host cell viability
8 | C=CC(=O)N1CCC[C@@H](n2nc(-c3ccc(Oc4ccccc4)cc3)c3c(N)ncnc32)C1 [Ibrutinib] | 13.7 µM |  |  | 3646.9 AU | 17695.2 AU | > 30 µM | Effect on dsRNA / virus in dose response [1]: did block the virus in high concentrations; Effect on host cell viability and morphology (Calu-3 cells [5]): significant cell toxicity
9 | Cl.Cl.O=C(Cc1ccc(-c2ccc(OCCN3CCOCC3)cc2)cn1)NCc1ccccc1 [KX2-391 dihydrochloride] |  | 0.016 |  | 1685.1 AU | 2878.5 AU |  | EC50 [1]: 8.72 µM; EC50 (Calu-3 cells [5]): 0.136 µM
10 | O=C(Nc1ncc(SCCN2CCCC2)s1)[C@]1(c2ccc(S(=O)(=O)C3CC3)cc2)C[C@H]1C1CCCCC1 [Ly2608204] |  | <0.69 | Ly2608204* |  |  |  | EC50 [1]: > 30 µM; EC50 (Calu-3 cells [5]): 20.9 µM
11 | CN(c1ncccc1CNc1nc(Nc2ccc3c(c2)CC(=O)N3)ncc1C(F)(F)F)S(C)(=O)=O [PF-00562271] |  | 0.510 | PF-00562271* |  | 36485.5 AU |  | EC50 [1]: 8.6 µM; EC50 (Calu-3 cells [5]): 4.39 µM
12 | Cc1ccc(Nc2nccc(N(C)c3ccc4c(C)n(C)nc4c3)n2)cc1S(N)(=O)=O.Cl [Pazopanib HCl] |  | >3.5 | Pazopanib HCl* | 14157.8 AU | 9479.9 AU |  | EC50 [1]: 8.64 µM; EC50 (Calu-3 cells [5]): > 30 µM
13 | CCOc1cc2ncc(C#N)c(Nc3ccc(F)c(Cl)c3)c2cc1NC(=O)/C=C/CN(C)C [Pelitinib] |  |  | Pelitinib* |  |  | 5.88 µM | EC50 (μM) dsRNA [1]: None
14 | Cc1ncc(CO)c(CO)c1O [Pyridoxine] | > 30 µM |  | Pyridoxine* | 17847.0 AU | 29400.2 AU | > 30 µM | 
15 | COc1cc(Nc2ncc(F)c(Nc3ccc4c(n3)NC(=O)C(C)(C)O4)n2)cc(OC)c1OC [R406, reference compound] |  |  |  | 5357.1 AU | 30563.4 AU |  | EC50 (μM) dsRNA [1]: None; EC50 (Calu-3 cells [5]): 1.84 µM
16 | Cn1c(=O)c(F)c(Nc2ccc(I)cc2F)c2c(=O)n(C[C@@H](O)CO)cnc21 [TAK-733, reference compound] | > 30 µM |  |  | 15107.2 AU | 14755.9 AU | > 30 µM | 
17 | Cc1cnc(Nc2ccc(OCCN3CCCC3)cc2)nc1Nc1cccc(S(=O)(=O)NC(C)(C)C)c1 [TG101348] |  |  | TG101348* | 3065.1 AU | 15118.2 AU | 1.61 µM | EC50 (μM) dsRNA [1]: None
18 | O=C1NC(=O)[C@@H](c2cn3c4c(cccc24)CCC3)[C@@H]1c1c[nH]c2ccccc12 [Tivantinib] | > 30 µM | <.07 |  | 46631.5 AU | 19485.6 AU | 2.21 µM | 
19 | CC(=O)Nc1cccc(-n2c(=O)n(C3CC3)c(=O)c3c(Nc4ccc(I)cc4F)n(C)c(=O)c(C)c32)c1 [Trametinib] | 0.398 µM | >75 |  | 36456.5 AU | 10541.3 AU | > 30 µM | 
20 | CCOC(=O)C1=C[C@]2(CC)CCCN3CCc4c(n1c1ccccc41)[C@@H]32 [Vinpocetine] | 25.7 µM | >1 |  | 5212.2 AU | 19993.1 AU | > 30 µM | 
21 | CC(C)c1cc(CNc2nc(Nc3cc(C4CC4)[nH]n3)cc(N3CCN(C)CC3)n2)on1 [XL228] | 0.0745 µM | 0.891 | XL228* | 17836.6 AU | 39819.2 AU | 0.0664 µM | 
